Source: patent US5430042A, “Dialkoxy-pyridinyl-benzimidazole derivatives, process for their preparation and their pharmaceutical use” (priority 1990, dated 1995)

Legend:
gastric acid secretion [1] = assay: Inhibition of Gastric Acid Secretion in the Conscious Female Rat, iv; format: in vivo, rat (Sprague-Dawley)
Description: (§1) The potency for inhibition of acid secretion is measured in the dog, intravenously (iv) and in the female rat, intravenously (iv).
Female rats of the Sprague-Dawley strain are used. They are equipped with cannulated fistulae in the stomach (lumen) for collection of gastric secretions. A fourteen days recovery period after surgery is allowed before testing is commenced.
Before secretory tests, the animals are deprived of food but not water for 20 h. The stomach is repeatedly washed through the gastric cannula, and 6 ml of Ringer-Glucose given s.c. Acid secretion is stimulated with infusion during 3.5 h (1.2 ml/h, s.c.) of pentagastrin and carbachol (20 and 110 nmol/kg h, respectively), during which time gastric secretions are collected in 30-min fractions. Test substances or vehicle are given iv at 90 min after starting the stimulation, in a volume of 1 ml/kg. Gastric juice samples are titrated to pH 7.0 with NaOH, 0.1 mol/L, and acid output is calculated as the product of titrant volume and concentration. Further calculations are based on group mean responses from 4-7 rats. The acid output during the periods after administration of test substances or vehicle are expressed as fractional responses, setting the acid output in the 30-min period preceding administration to 1.0. Percentage inhibition is calculated from the fractional responses elicited by test compound and vehicle. […]

[2] = tested on: uptake of ^125 I in the thyroid gland; assay: Effect on the Accumulation of ^125 I in the Thyroid Gland; format: in vivo, rat (Sprague-Dawley); conditions: oral gavage, male rat, 4 h after ^125 I
Description: The effect of a compound within the invention of the formula I on the uptake of iodine into the thyroid gland is measured as an effect on the accumulation of ^125 I in the thyroid gland.
The accumulation of ^125 I in the thyroid gland was studied in male, Sprague-Dawley rats which were deprived of food for 24 hours before the test. The experimental protocol of Searle, C. E. et al. (Biochem J 1950, 47:77-81) was followed.
Test substances suspended in 0.5% buffered (pH 9) methocel, were administered by oral gavage in a volume of 5 ml/kg body weight. After 1 hour, ^125 I (300 kBqkg, 3 ml/kg) was administered by intraperitoneal injection. Four hours after ^125 I-administration, the animals were killed by CO2 -asphyxiation and bled. The thyroid gland together with a piece of the trachea was dissected out and placed in a small test tube for the assay of radioactivity in a gamma counter (LKB-Wallac model 1282 Compugamma). Percentage inhibition was calculated according to the formula 100 (1-T/P), where T and P is the mean radioactivety of thyroid glands from animals treated with test agent and placebo (buffered methocel), respectively. The statistical significane for a difference between test agent- and placebo-treated animals was assessed with the Mann-Whitney U-test (two-tailed). P<0.05 was accepted as significant.

[3] = Chemical Stability at pH 7 in aqueous buffer; format: physicochemical; conditions: pH 7, 37° C., low concentration, read-out: Chemical stability at pH 7 half-life (t 1/2)
Description: The chemical stability of a compound of the invention is followed kinetically at low cencentration at 37° C. in aqueous buffer solution at different pH values. The results in Table 4 show the half life (t 1/2) at pH 7, that is the time period after which half the amount of the original compound remains unchanged.

gastric acid secretion [4] = assay: Inhibition of Gastric Acid Secretion in the Conscious Dog, iv; format: in vivo, dog (Harrier); conditions: Canis lupus familiaris, histamine-stimulated, acid output 2 h after dosing, read-out: Inhibition of acid secretion iv administration ED50, Dog
Description: as §1
Harrier dogs of either sex were used. They were equipped with a duodenal fistula for the administration of test compounds or vehicle and a Heidenhain-pouch for the collection of gastric secretions.
Before secretory tests the animals were fasted for about 18 h but water was freely allowed. Gastric acid secretion was stimulated by a 4 h infusion of histamine dihydrochloride (12 ml/h) at a dose producing about 80% of the individual maximal secretory response, and gastric juice collected in consecutive 30-min fractions. Test substance or vehicle was given iv 1 h after starting the histamine infusion, in a volume of 0.5 ml/kg body weight. The acidity of the gastric juice samples were determined by titration to pH 7.0, and the acid output calculated. The acid output in the collection periods after administration of test substance or vehicle were expressed as fractional responses, setting the acid output in the fraction preceding administration to 1.0. Percentage inhibition was calculated from fractional responses elicited by test compound and vehicle. ED50 -values were obtained by graphical interpolation on log dose--response curves, or estimated from single-dose experiments under the assumption of the same slope of the dose-response curve for all test compounds. […]

[5] = Bioavailability in the Male Rat (id vs iv AUC); format: in vivo, rat (Sprague-Dawley); conditions: blood, 4 umol/kg, intraduodenal vs iv, 4 μmol/kg, read-out: Bioavailability F %, Rat
Description: Biovailability is assessed by calculating the quotient between the area under plasma concentration (AUC) curve following intreduodenal (id) administration and intravenous (iv) administration from the rat.
Male adult rats of the Sprague-Dawley strain were used. One day, prior to the experiments, all rats were prepared by cannulation of the left carotid artery under anaesthesia. The rats used for the intravenous experiments, were also cannulated in the jugular vein. (Ref. V. Popovic and P. Popovic, J Appl Physiol 1960;15,727-728). The rats used for the intraduodenal experiments, were also cannulated in the upper part of the duodenum. The cannulas were exteriorized at the nape of the neck. The rats were housed individually after surgery and were deprived of food, but not water, before administration of the test substances. The same dose (4 μmol/kg) were given iv and id as a bolus for about one minute (2 ml/kg).
Blood samples (0.1-0.4 g) were drawn repeatedly from the carotid artery at intervals up to 4 hours after given dose. […]
The area under the blood concentration vs time curve, AUC, was determined by the linear trapezoidal rule and extrapolated to infinity by dividing the last determined blood concentration by the elimination rate constant in the terminal phase.
The systemic bioavailability (F %) following intraduodenal administration was calculated as [formula]

SMILES	inhibition of acid secretion, Rat (gastric acid secretion [1]; 1 μmol/kg iv) [%]	Percent inhibition of 400 μmol/kg on the uptake of ^125 I in the thyroid gland [2] [%]	half-life [3] [h]	ED50 (gastric acid secretion [4]) [µmol/kg]	bioavailability [5] [%]	ED50 (gastric acid secretion [1]; 2 h, iv, pentagastrin and carbachol stimulated, second hour after drug, read-out: Inhibition of acid secretion iv administration ED50, Rat) [µmol/kg]
CC(=O)c1cc2nc([S+]([O-])Cc3nccc4c3OCCO4)[nH]c2cc1C (centres unmarked) [Example 2, 5-Acetyl-6-methyl-2-[[(3,4-ethylendioxy-2-pyridinyl)methyl]sulfinyl]-1H-benzimidazole]	14					
COC(=O)c1cc2nc([S+]([O-])Cc3nccc(OC)c3OC)[nH]c2cc1C (centres unmarked) [Example 3, 5-Carbomethoxy-6-methyl-2-[[(3,4-dimethoxy-2-pyridinyl)methyl]sulfinyl]-1H-benzimidazole]		0	8	0.5		
COc1ccnc(C[S+]([O-])c2nc3cc(C(C)=O)c(C)cc3[nH]2)c1OC (centres unmarked) [Example 4, 5-Acetyl-6-methyl-2-[[(3,4-dimethoxy-2-pyridinyl)methyl]sulfinyl]-1H-benzimidazole]		-7	7.83	0.74	> 100	0.9
CCOC(=O)c1ccc2[nH]c([S+]([O-])Cc3nccc(OC)c3OC)nc2c1 (centres unmarked) [Example 5, 5-Carbethoxy-2-[[(3,4-dimethoxy-2pyridinyl)methyl]sulfinyl]-1H-benzimidazole]		-6	4.5			
